We go through five compounds from patent US11000538B2, “Composition for enhancing exercise ability or anti-fatigue comprising novel ginsenoside” (priority 2018, dated 2021).

Entries after “also recorded” stand apart in the source; their conditions may differ.

For data set [1], the system named is mouse-derived myocyte lines (C2C12; ATCC). The data set is described as follows: Mitochondrial production in differentiated myocytes (Mitotracker Green staining, Q-PCR of mitochondrial marker genes). Type of data set: cell-based. To be noted: 20 pg/ml, 24 hours. The procedure: (§1) Ginseng seed-derived ginsenosides were administered to mouse-derived myocyte lines (C2C12; ATCC) to observe changes in mitochondrial amount and fatty acid oxidation in myocytes.
(§2) The mouse-derived myocyte lines (C2C12; ATCC) were cultured using Dulbecco's Modified Eagle's Medium (DMEM; Sigma) containing […] fetal bovine serum (Hyclone) and 1% penicillin/streptomycin (Sigma). The cells were induced to be 100% confluent for differentiation into myocytes and then differentiated using a DMEM medium containing 2% horse serum (Hyclone) and 1% penicillin/streptomycin (Sigma). Medium was changed daily, with differentiation for a total of a week.
(§3) After treating the differentiated myocytes with the novel ginsenoside GS #10 of one embodiment of the present disclosure and the other ginsenosides GS #01-GS #06 isolated from the existing ginseng seed extract at a concentration of 20 pg/ml for 24 hours, respectively, the amount of mitochondria in myocytes was observed by staining with a Mitotracker Green™ (Invitrogen) reagent. mRNA expression levels of mitochondrial marker genes were measured using Q-PCR. As positive controls, a combination of GW501516 and Metformin (GW/Met; treated at 10 μM each), which are candidates for exercise mimetics and are known to improve exercise ability by activating PPARδ (Peroxisome proliferator-activated receptor delta) and AMPK (AMP-activated protein kinase), respectively, was used. The mitochondrial number measured as a result of the test is shown in FIG. 11, and the mitochondrial marker gene expression levels are shown in FIGS. 12 to 14.
(§4) The experiments were performed in the same manner as in Test Examples 1 and 2 above, respectively.
(§5) First, the C2C12 myocytes differentiated in the same manner as in Test Example 1 above were treated with ginsenosides Rg1, Rg3, and Rb1, which are comparative examples of the present disclosure, and the novel ginsenoside GS #10 of one embodiment of the present disclosure, respectively, and then mitochondria and marker genes were observed (FIGS. 21 to 25). In addition, in the same manner as in Test Example 2 above, after administration of 20 mg/kg each of ginsenosides Rg1, Rg3, Rb1, which are comparative examples of the present disclosure, and the novel ginsenoside GS #10 of one embodiment of the present disclosure for 6 weeks to the mice, the exercise ability was observed.

The test system of a further data set is Sprague-Dawley (SD) mice. Nature of the data set: Treadmill experiment after 6 weeks of oral administration (muscle mitochondrial genes, exercise time, plasma lactate). To be noted: 20 mg/kg orally for 6 weeks; for expression of mitochondrial marker gene in muscle (mitochondrial activity): muscle tissue after treadmill, FIGS. 16-18; for exercise time / exercise ability on treadmill: run until exhausted, FIGS. 19, 25. Type of data set: in vivo. The procedure: The following experiment was performed to confirm whether the exercise ability improving effect due to the increased mitochondrial production and lipid metabolism promotion of the ginseng seed-derived novel ginsenoside (GS #10) confirmed in Test Example 1 above was also shown at the actual individual level. 20 mg/kg each of the novel ginsenoside GS #10 of one embodiment of the present disclosure and the other ginsenosides GS #01-GS #06 isolated from the existing ginseng seed extract was orally administered to 39-week-old female Sprague-Dawley (SD) mice, and 10 mg/kg each thereof was orally administered to the control group GW/Met for 6 weeks. In order to improve the treadmill adaptability during the six-week experiment, mice were placed on the treadmill every two weeks to familiarize them with the use of the treadmill. After six weeks of administration, mice were placed on a treadmill to run on the treadmill. The exercise time was until the mice were exhausted and pushed down from the treadmill, and the mice which finished the exercise was immediately extracted of muscle tissue and plasma by necropsy. […] The expression patterns of mitochondrial marker genes in muscle are shown in FIGS. 16 to 18, and exercise time and plasma lactate in blood are shown in FIGS. 19 and 20.
as §4, §5

A further data set concerns C2C12 myoblasts. The data set is described as follows: Myocyte differentiation promotion (mRNA of MyoG, α-actin, myosin). Type of data set: cell-based, mouse. To be noted: 10 pg/ml during 4 days of differentiation in 2% horse serum; FIGS. 29-31, 33-35. The protocol:
As muscles decrease with age, supplementing muscle mass by differentiating myoblasts into myocytes is an essential process for maintaining muscle mass. […] During the differentiation period, the novel ginsenoside GS #10 of one embodiment of the present disclosure and the other ginsenosides GS #01-GS #06 isolated from the existing ginseng seed extract were treated at a concentration of 10 pg/ml, respectively. The control is differentiation medium not treated with ginsenosides. […] After 4 days of differentiation, mRNA was extracted from each treatment group using Trizol™ reagent (Thermo Fisher Scientific), and then cDNA was synthesized using a RevertAid 1st strand cDNA synthesis kit (Thermo Fisher Scientific). The expression levels of myoG, α-actin and myosin, which are muscle fiber marker genes, were observed using a temperature-cycling nucleic acid amplifier (CFX96 thermocycle, Bio-Rad).
The experiment was performed in the same manner as in Test Examples 5 and 6.

For a further data set, the system named is Balb/c mice. The data set is described as follows: Anti-fatigue efficacy in sleep-deprivation fatigue model (forced swim test, plasma lactate). Type of data set: in vivo. To be noted: oral, 2 weeks; GS #10 10 and 50 mg/kg, ginseng seed extract 50 mg/kg; 24 hours sleep deprivation; FIGS. 36, 37. From the text:
In Test Example 2 above, it was confirmed that the novel ginsenoside GS #10 of one embodiment of the present disclosure improved exercise ability and lowered plasma lactate in blood that is increased by exercise. […] Experimental methods are the same as those described in Cho et al., Biol Pharm Bull 33 (7):1128, which is incorporated herein by reference in its entirety. Balb/c mice purchased from Samtako were adapted to the age of 12 weeks and then divided into a fatigue-induced group of 32 mice and a control of 8 mice. The fatigue-induced group was divided into 4 groups again, each of 8 mice, of which is the novel ginsenoside GS #10 10 mg/kg treatment group (F/GS #10 10), 50 mg/kg treatment group (F/GS #10 50), ginseng seed extract 50 mg/kg treatment group (F/GSE #10 50), and untreated group (Fatigue). The ginseng seed extract is a comparative example of the present disclosure, and is a ginseng seed (seeds of Panax ginseng) methanol extract used in the isolation of ginsenoside in Example 1 described above herein. […] Then, while performing the FST (forced swim test) 6 minutes, the time during which the mice of each experiment group floated still on the water without swimming was measured to calculate fatigue. Thereafter, the plasma lactate in blood was measured, and the degree of accumulation of the fatigue substance was observed. […]

For data set [2], the system named is mouse-derived myocyte lines (C2C12; ATCC). Nature of the data set: Fatty acid oxidation in differentiated myocytes. Format: cell-based. To be noted: 20 pg/ml, 24 hours, FIG. 15. The procedure: as §1, §2
as §3, with “As positive controls, a combination of GW501516 and Metformin (GW/Met; treated at 10 μM each), which are candidates for exercise mimetics and are known to improve exercise ability by activating PPARδ (Peroxisome proliferator-activated receptor delta) and AMPK (AMP-activated protein kinase), respectively, was used.” left out

The next data set deals with SH-SY5Y cells. Nature of the data set: Cytotoxicity, Cell Counting Kit (CCK)-8. Type of data set: cell-based. To be noted: SH-SY5Y cells, 0.1, 1, 5, 10, 20 and 50 μM; FIG. 27. The protocol:
The cell growth in the presence of novel ginsenoside GS #10 of one embodiment of the present disclosure was evaluated using Cell Counting Kit (CCK)-8 in order to exclude the possibility that ginsenosides may affect exercise ability enhancing efficacy through cytotoxic activity. The experimental method is as follows.
10 μl of a CCK-8 reagent was added to SH-SY5Y cells in culture (Dojindo, Md., USA) with reference to a 96-well plate and left at 37° C. for 2 hours, and then absorbance was measured at 450 nm. The cell viability was marked as a percentage (%) of the absolute optical density of each sample relative to the untreated sample. At this time, the concentration of the novel ginsenoside GS #10, which is an example of the present disclosure, contained in the medium in which the cells were cultured was 0.1, 1, 5, 10, 20, and 50 μM, respectively.
On the technique in general: Formazan colour is commonly taken as a measure of viable cells.

The test system of data set [3] is C2C12 myoblasts induced with chronic inflammation (IL-6). The data set is described as follows: Cell growth recovery of myoblasts with IL-6-induced chronic inflammation. Type of data set: cell-based, mouse. The conditions noted are these: IL-6 10 ng/ml for 4 weeks, then 10 pg/ml for 48 hours; FIGS. 28, 32. From the text:
Muscle cells are made from myosatellite cells present inside the muscle. They are usually in a quiescent state, and when muscle damage such as exercise is applied, they wake up and are divided to form myoblasts, and these myoblasts differentiate to form myocytes. These muscle stem cells are known to decrease in number and activity with age. In this process, the inflammatory response, especially IL-6 is involved. Therefore, it was confirmed through the following experiment whether the novel ginsenoside of the embodiment of the present disclosure can restore cell division of muscle stem cells under IL-6-mediated muscle stem cell growth inhibition conditions.
Since muscle stem cells are not available in the form of cell lines, mouse-derived muscle cell lines (C2C12, ATCC) located between muscle stem cells and myoblasts were cultured using Dulbecco's Modified Eagle's Medium (Sigma) containing 10% fetal bovine serum (Hyclone) and 1% penicillin/streptomycin (Sigma). […] Accordingly, in order to induce an inflammatory state due to aging, IL-6 (10 ng/ml) was treated for 4 weeks to induce myoblast aging. […] Myoblasts of this state were treated with the novel ginsenoside GS #10 of one embodiment of the present disclosure and the other ginsenosides GS #01-GS #06 isolated from the existing ginseng seed extract at a concentration of 10 pg/ml each for 48 hours. […]

As to ginsenoside Rg3, the “mitochondrial biosynthesis ability / mitochondria production (mitochondrial number; PGC1α, NRF1, tfam expression)” value in data set [1] (FIGS. 11-14, 21-24) was “did not increase mitochondria production”.

Regarding `CC(C)=CCC[C@](C)(O[C@@H]1O[C@H](CO[C@@H]2OC[C@H](O)[C@H](O)[C@H]2O)[C@@H](O)[C@H](O)[C@H]1O)[C@H]1CC[C@]2(C)[C@@H]1[C@H](O)C[C@@H]1[C@@]3(C)CC[C@H](O[C@@H]4O[C@H](CO)[C@@H](O)[C@H](O)[C@H]4O[C@@H]4O[C@H](CO)[C@@H](O)[C@H](O)[C@H]4O)C(C)(C)[C@@H]3CC[C@]12C` [GS #06, ginsenoside Rb2, reference compound], the “mitochondrial biosynthesis ability / mitochondria production (mitochondrial number; PGC1α, NRF1, tfam expression)” value in data set [1] (FIGS. 11-14, 21-24) is reported as “a slight mitochondria increasing efficacy”. In addition, in the data set with Sprague-Dawley (SD) mice, the “expression of mitochondrial marker gene in muscle (mitochondrial activity)” value (“expression of mitochondrial marker gene” for short) is recorded as “insignificant” and the “exercise time / exercise ability on treadmill” value is reported as “insignificant”.

Consider `C[C@@H]1CC(=O)C(C)(C)C2C1C1C[C@@H](O)C3C([C@]4(C)CC[C@H](C(C)(C)O)O4)CC[C@@]3(C)[C@]1(C)C[C@@H]2O[C@H]1OC(CO)[C@H](O)C(O)C1O[C@H]1OC(CO)[C@H](O)C(O)C1O` (stereo partly drawn) [GS #10, (20S,24R)-6-O-β-D-glucopyranosyl(1→2)-β-D-glucopyranoside-dammar-3-one-20,24-epoxy-6a,12b,25-triol], for which, in the data set on C2C12 myoblasts, the “myocyte differentiation marker gene expression (MyoG, α-actin, myosin)” value is reported as “a significant increase in marker gene expression; also recorded: myocyte differentiation”. Moreover, the “fatigue relief (FST immobility time, plasma lactate)” value with Balb/c mice is listed as “reduce the symptoms caused by fatigue in a concentration-dependent manner”. Moreover, the “mitochondrial biosynthesis ability / mitochondria production (mitochondrial number; PGC1α, NRF1, tfam expression)” value in data set [1] (FIGS. 11-14, 21-24) is reported as “the most excellent; also recorded: showed mitochondria increasing efficacy”. The “fatty acid oxidation in myocytes” value in data set [2] is “increased the most”. Besides, in the data set on Sprague-Dawley (SD) mice (blood after treadmill, FIGS. 20, 26), the “lactic acid concentration (plasma lactate), muscle fatigue marker” value is given as “the lowest pattern; also recorded: anti-fatigue effect”. In the data set with Sprague-Dawley (SD) mice, the “expression of mitochondrial marker gene” value was “significantly increased” and the “exercise time / exercise ability on treadmill” value is “doubled the exercise time; also recorded: significant exercise ability improvement”. The “cytotoxicity (cell viability, % of untreated)” value with SH-SY5Y cells was “did not exhibit cytotoxicity up to 50 μM”. The “cell growth recovery of aged myoblasts (number of cells)” value in data set [3] is “a significant effect; also recorded: showed the effects of promoting myoblast growth”.

`CC(C)=CCC[C@](C)(O[C@@H]1O[C@H](CO)[C@@H](O)[C@H](O)[C@H]1O)[C@H]1CC[C@]2(C)[C@@H]1[C@H](O)C[C@@H]1[C@@]3(C)CC[C@H](O)C(C)(C)[C@@H]3[C@@H](O[C@@H]3O[C@H](CO)[C@@H](O)[C@H](O)[C@H]3O)C[C@]12C` [Rg1, ginsenoside Rg1]: the “mitochondrial biosynthesis ability / mitochondria production (mitochondrial number; PGC1α, NRF1, tfam expression)” value in data set [1] (FIGS. 11-14, 21-24) was “did not increase mitochondria production”.

On to `CC(C)=CCC[C@](C)(O[C@@H]1O[C@H](CO[C@@H]2O[C@H](CO)[C@@H](O)[C@H](O)[C@H]2O)[C@@H](O)[C@H](O)[C@H]1O)[C@H]1CC[C@]2(C)[C@@H]1[C@H](O)C[C@@H]1[C@@]3(C)CC[C@H](O[C@@H]4O[C@H](CO)[C@@H](O)[C@H](O)[C@H]4O[C@@H]4O[C@H](CO)[C@@H](O)[C@H](O)[C@H]4O)C(C)(C)[C@@H]3CC[C@]12C` [GS #05, ginsenoside Rb1, reference compound], for which the “mitochondrial biosynthesis ability / mitochondria production (mitochondrial number; PGC1α, NRF1, tfam expression)” value in data set [1] (FIGS. 11-14, 21-24) was “a slight mitochondria increasing efficacy”. In addition, in data set [1] (FIGS. 11-14, 21-24, listed as Rb1), the “mitochondrial biosynthesis ability / mitochondria production (mitochondrial number; PGC1α, NRF1, tfam expression)” value is listed as “did not increase mitochondria production”. Besides, in the data set with Sprague-Dawley (SD) mice, the “expression of mitochondrial marker gene” value is listed as “insignificant” and the “exercise time / exercise ability on treadmill” value is reported as “insignificant”.
